ChEMBL document CHEMBL5244218, “Quinolone derivatives and their activities against methicillin-resistant Staphylococcus aureus (MRSA)” (Eur J Med Chem, 2018)
Values after ≈ are worked out from the molar mass of the structure shown.

test system: Staphylococcus aureus; experiment: Antibacterial activity against methicillin-resistant Staphylococcus aureus isolates by two fold dilution method; assay type: functional

Row | Compound | MIC [µg/mL]
1 | CC1CN(c2c(F)cc3c(=O)c(C(=O)O)c4scc5n4c3c2N(C)C5)CCN1C (configuration not stated) | 0.05 (≈ 0.12 µM)
2 | CCNCC1CCN(c2c(F)cc3c(=O)c(C(=O)O)c4scc5n4c3c2NC5)C1 (configuration not stated) | 0.05 (≈ 0.12 µM)
3 | CCn1cc(C(=O)O)c(=O)c2cc(F)c(N3CCN(C)CC3)cc21 [PEFLOXACIN] | 1.56 (≈ 4.68 µM)
4 | CC1COc2c(N3CCN(C)CC3)c(F)cc3c(=O)c(C(=O)O)cn1c23 (configuration not stated) [OFLOXACIN] | 1.56 (≈ 4.32 µM)

test system: Staphylococcus aureus; experiment: Antimicrobial activity against methicillin-resistant Staphylococcus aureus assessed as inhibition of microbial growth; assay type: functional

Row | Compound | MIC [µg/mL]
5 | O=C(O)c1cn(C2CC2)c2c(c1=O)C=C(F)C1N=NC(c3ccc(O)cc3)=CN21 (configuration not stated) | 0.25
6 | O=C(O)c1c[nH]c2cc(N3CCN([C@@H]4O[C@H](CO)[C@@H](O)[C@H](O)[C@H]4O)CC3)c(F)cc2c1=O | 0.5
7 | COc1ccc(C2=CN3c4c(c(=O)c(C(=O)O)cn4C4CC4)C=C(F)C3N=N2)cc1OC (configuration not stated) | 0.25
8 | O=C(O)c1cn(C2CC2)c2c(c1=O)C=C(F)C1N=NC(c3cccc([N+](=O)[O-])c3)=CN21 (configuration not stated) | 0.25
9 | COc1ccc(C(=O)N2CCN(C(=O)N3CCN(c4ccc5c(=O)c(C(=O)O)cn(C6CC6)c5c4)CC3)CC2)cc1 | < 0.016
10 | COc1cccc(C(=O)N2CCN(C(=O)N3CCN(c4ccc5c(=O)c(C(=O)O)cn(C6CC6)c5c4)CC3)CC2)c1 | < 0.016
11 | COc1ccccc1C1=CN2c3c(c(=O)c(C(=O)O)cn3C3CC3)C=C(F)C2N=N1 (configuration not stated) | 0.25
12 | COc1ccccc1C(=O)N1CCN(C(=O)N2CCN(c3ccc4c(=O)c(C(=O)O)cn(C5CC5)c4c3)CC2)CC1 | < 0.016
13 | Cc1ccc(C2=CN3c4c(c(=O)c(C(=O)O)cn4C4CC4)C=C(F)C3N=N2)cc1 (configuration not stated) | 0.25
14 | COc1ccc(C(=O)N2CCN(C(=O)N3CCN(c4ccc5c(=O)c(C(=O)O)cn(C6CC6)c5c4)CC3)CC2)c(OC)c1 | < 0.016
15 | O=C(O)c1c[nH]c2cc(N3CCN([C@@H]4O[C@H](CO)[C@H](O)[C@H](O)[C@H]4O)CC3)c(F)cc2c1=O | 0.5
16 | COc1ccc(C(=O)N2CCN(C(=O)N3CCN(c4ccc5c(=O)c(C(=O)O)cn(C6CC6)c5c4)CC3)CC2)cc1OC | < 0.016
17 | O=C(O)c1cn(C2CC2)c2c(c1=O)C=C(F)C1N=NC(c3ccc(Br)cc3)=CN21 (configuration not stated) | 0.25
18 | Cc1ccccc1C1=CN2c3c(c(=O)c(C(=O)O)cn3C3CC3)C=C(F)C2N=N1 (configuration not stated) | 0.25
19 | Nc1ccc(C2=CN3c4c(c(=O)c(C(=O)O)cn4C4CC4)C=C(F)C3N=N2)cc1 (configuration not stated) | 0.25
20 | COc1cc(OC)cc(C(=O)N2CCN(C(=O)N3CCN(c4ccc5c(=O)c(C(=O)O)cn(C6CC6)c5c4)CC3)CC2)c1 | < 0.016
21 | O=C(O)c1cn(C2CC2)c2c(c1=O)C=C(F)C1N=NC(c3ccc([N+](=O)[O-])cc3)=CN21 (configuration not stated) | 0.25
22 | COc1ccc(C2=CN3c4c(c(=O)c(C(=O)O)cn4C4CC4)C=C(F)C3N=N2)cc1 (configuration not stated) | 0.25
23 | O=C(O)c1cn(C2CC2)c2c(c1=O)C=C(F)C1N=NC(c3cccc(Cl)c3)=CN21 (configuration not stated) | 0.25
24 | O=C(O)c1cn(C2CC2)c2c(c1=O)C=C(F)C1N=NC(c3ccc(Cl)cc3)=CN21 (configuration not stated) | 0.25
25 | Nc1cccc(C2=CN3c4c(c(=O)c(C(=O)O)cn4C4CC4)C=C(F)C3N=N2)c1 (configuration not stated) | 0.25

test system: Staphylococcus aureus; experiment: Bactericidal activity against methicillin-resistant Staphylococcus aureus assessed as inhibition of microbial growth; assay type: functional

Row | Compound | MBC [µg/mL]
26 | COc1ccc(C(=O)N2CCN(C(=O)N3CCN(c4ccc5c(=O)c(C(=O)O)cn(C6CC6)c5c4)CC3)CC2)cc1 | ≥ 128
27 | COc1cccc(C(=O)N2CCN(C(=O)N3CCN(c4ccc5c(=O)c(C(=O)O)cn(C6CC6)c5c4)CC3)CC2)c1 | ≥ 128
28 | COc1ccccc1C(=O)N1CCN(C(=O)N2CCN(c3ccc4c(=O)c(C(=O)O)cn(C5CC5)c4c3)CC2)CC1 | ≥ 128
29 | COc1ccc(C(=O)N2CCN(C(=O)N3CCN(c4ccc5c(=O)c(C(=O)O)cn(C6CC6)c5c4)CC3)CC2)c(OC)c1 | ≥ 128
30 | COc1ccc(C(=O)N2CCN(C(=O)N3CCN(c4ccc5c(=O)c(C(=O)O)cn(C6CC6)c5c4)CC3)CC2)cc1OC | ≥ 128
31 | COc1cc(OC)cc(C(=O)N2CCN(C(=O)N3CCN(c4ccc5c(=O)c(C(=O)O)cn(C6CC6)c5c4)CC3)CC2)c1 | ≥ 128

test system: Staphylococcus aureus; experiment: Antibacterial activity against methicillin-resistant Staphylococcus aureus assessed as inhibition of microbial growth; assay type: functional

Row | Compound | MIC [µg/mL]
32 | CC1(C)CN(c2ccc3c(=O)c(C(=O)O)cn(C4CC4)c3c2)CC1CN (configuration not stated) | 0.015
33 | CNCC1CN(c2ccc3c(=O)c(C(=O)O)cn(-c4ccc(F)cc4F)c3n2)CC1(C)C (configuration not stated) | 0.015
34 | CC1(C)CN(c2ccc3c(=O)c(C(=O)O)cn(C4CC4)c3n2)CC1CN (configuration not stated) | 0.015
35 | CNCC1CN(c2cc(N)c3c(=O)c(C(=O)O)cn(C4CC4)c3c2C(C)=O)CC1(C)C (configuration not stated) | 0.015
36 | CC1(C)CN(c2ccc3c(=O)c(C(=O)O)cn(-c4ccc(F)cc4F)c3n2)CC1CN (configuration not stated) | 0.015
37 | CNCC1CN(c2ccc3c(=O)c(C(=O)O)cn(C4CC4)c3n2)CC1(C)C (configuration not stated) | 0.015
38 | CNCC1CN(c2ccc3c(=O)c(C(=O)O)cn(C4CC4)c3c2C(C)=O)CC1(C)C (configuration not stated) | 0.015
39 | CC(=O)c1c(N2CC(CN)C(C)(C)C2)ccc2c(=O)c(C(=O)O)cn(C3CC3)c12 (configuration not stated) | 0.015
40 | CNCC1CN(c2ccc3c(=O)c(C(=O)O)cn(C4CC4)c3c2)CC1(C)C (configuration not stated) | 0.015
41 | CC(=O)c1c(N2CC(CN)C(C)(C)C2)cc(N)c2c(=O)c(C(=O)O)cn(C3CC3)c12 (configuration not stated) | 0.015

test system: Staphylococcus aureus; experiment: Antimicrobial activity against methicillin-resistant Staphylococcus aureus isolates by agar dilution method; assay type: functional

Row | Compound | MIC [µg/mL]
42 | COc1ccc(NC2CN(c3c(F)cc4c(=O)c(C(=O)O)cn(C5CC5)c4c3F)C2)cc1 | 0.16 (≈ 0.362 µM)
43 | O=C(O)c1cn(C2CC2)c2c(F)c(N3CC(Nc4ccccc4)C3)c(F)cc2c1=O | 0.016 (≈ 0.0389 µM)
44 | Cc1ccc(NC2CN(c3c(F)cc4c(=O)c(C(=O)O)cn(C5CC5)c4c3F)C2)cc1 | 0.016 (≈ 0.0376 µM)
45 | O=C(O)c1cn(C2CC2)c2c(F)c(N3CC(N(Cc4ccccc4)Cc4ccccc4)C3)c(F)cc2c1=O | 0.016 (≈ 0.031 µM)
46 | CCOC(=O)c1ccc(NC2CN(c3c(F)cc4c(=O)c(C(=O)O)cn(C5CC5)c4c3F)C2)cc1 | 0.016 (≈ 0.0331 µM)
47 | O=C(O)c1cn(C2CC2)c2c(F)c(N3CC(Nc4ccc(Cl)cc4)C3)c(F)cc2c1=O | 0.016 (≈ 0.0359 µM)
